Measurements from US20260374836A1, “PALMITOYLATED ANALOGUE OF PROLACTIN-RELEASING PEPTIDE FOR INTRANASAL ADMINISTRATION” (USTAV ORGANICKE CHEMIE A BIOCHEMIE AKADEMIE VED CR, V. V. I., priority 2022, published 2026).
“Also recorded” adds a separate entry of the source. Numbered stars: 1 amine (or outer) side, 2 acyl side, 3 side chain; on linkers, the order of the positions; unused ones are H or OH. Side chains are listed from the residue outwards. Ends that are not written are not given here. Peptide text beside a SMILES is read from it. * marks the point of attachment. γGlu = O=C(O)[C@H](CCC(=O)[*:2])N[*:1]; Palmitoyl = CCCCCCCCCCCCCCCC(=O)*

Tests used:
[1] = background statement; cited from earlier work
blood glucose [2] = assay: blood glucose after repeated administration to obese C57BL/6N mice on high-fat diet; format: in vivo, mouse (C57BL/6N); conditions: obese C57BL/6N mice on HFD, IN 0.3 mg/kg repeated
Experimental: Male C57BL/6 mice (Charles River, Germany) were kept in the accredited animal facility of the Institute of Organic Chemistry and Biochemistry of the CAS, Prague, in the facility of the Academy of Sciences in Krč at a temperature of 22±2 °C and had free access to food and tap water. The light/dark rhythm was 12/12 hours (light onset 4:00). The animals were treated according to the Act on the Protection of Animals against Cruelty (Act No. 246/1992 Coll.). Males were fed at-house-made high-fat diet containing 60% fat (lard), 20% protein and 20% carbohydrate. From 8 weeks of age, they were fed this diet for 4 months. […] The compound was administered SC or IN twice daily 1 hour before lights out for 14 days. Throughout the period, the weight of the mice was monitored 3 times a week.

obese WKY rats = assay: change in weight after chronic (30 days) IP or IN administration to obese WKY rats on high-fat diet; format: in vivo, rat (Wistar Kyoto; conditions: for weight change: obese WKY rats on HFD, 30 days
Experimental: (§1) Male WKY rats (Charles River, Germany) were kept in the accredited animal facility of the Institute of Physiology of the CAS, v.v.i., Prague, in the facility of the Academy of Sciences in Krč at a temperature of 22±2 °C and had free access to food and tap water. The light/dark rhythm was 12/12 hours (light onset 4:00). The animals were treated according to the Act on the Protection of Animals against Cruelty (Act No. 246/1992 Coll.). Males were fed a high-fat diet D12492 (Research Diets, USA) containing 60% fat, 20% protein and 20% carbohydrate. From 8 weeks of age, they were fed this diet for 4 months. They were then divided into groups of 5 animals (IP administration of saline or palm^11-PrRP31 in saline at 5 mg/kg) or 8 animals (IN administration of saline or palm^11-PrRP31 in saline at 0.3 mg/kg). The compound was administered IP or IN once daily 1 hour before lights out for 30 days. Throughout the period, the weight of the rats was monitored 3 times a week and at the end, glycated hemoglobin was measured in blood drawn from the tail. Glycated hemoglobin (HbAlc) was determined using the Tina-quant HbAlc Gen. 3 kit (Roche, Mannheim, Germany).
(§2) Graph-Pad Prism Software (San Diego, CA, USA), one-way ANOVA followed by Dunnett's post-hoc test was used for statistical evaluation. Differences in food intake between individuals injected with saline and those injected with palm^11-PrRP31 were considered statistically significant at P<0.05.

[3] = test system: glycated hemoglobin (HbAlc); assay: glycated hemoglobin (HbA1c) in obese WKY rats after 30 days of treatment; format: in vivo, rat (Wistar Kyoto; conditions: obese WKY rats on HFD
Experimental: as §1, §2

obese C57BL/6 mice = assay: change in weight after chronic (14 days) SC or IN administration to obese C57BL/6 mice on high-fat diet; format: in vivo, mouse (C57BL/6); conditions: for body weight change: obese C57BL/6 mice on HFD
Experimental: Male C57BL/6 mice (Charles River, Germany) were kept in the accredited animal facility of the Institute of Organic Chemistry and Biochemistry of the CAS, Prague, in the facility of the Academy of Sciences in Krč at a temperature of 22±2 °C and had free access to food and tap water. The light/dark rhythm was 12/12 hours (light onset 4:00). The animals were treated according to the Act on the Protection of Animals against Cruelty (Act No. 246/1992 Coll.). Males were fed at-house-made high-fat diet containing 60% fat (lard), 20% protein and 20% carbohydrate. From 8 weeks of age, they were fed this diet for 4 months. They were then divided into groups of 6 animals (SC administration of saline or palm^11-PrRP31 in saline at 5 mg/kg and IN administration of saline or palm^11-PrRP31 in saline at 0.3 mg/kg). The compound was administered SC or IN twice daily 1 hour before lights out for 14 days. Throughout the period, the weight of the mice was monitored 3 times a week.
as §2

fasted C57BL/6 mice = assay: food intake test in fasted mice after SC or IN administration; format: in vivo, mouse (C57BL/6); conditions: for food intake: fasted mice
Experimental: Male mice of strain C57BL/6 (Charles River, Germany) were kept in the accredited animal facility of the Institute of Organic Chemistry and Biochemistry of the Academy of Sciences of the Czech Republic (CAS), Prague in the facility of the Academy of Sciences in Krč at a temperature of 22±2 °C and had free access to food and tap water. The rhythm of light/dark was 12/12 h (light onset 6:00). The animals were treated according to the Act on the Protection of Animals against Cruelty (Czech Act No. 246/1992 Coll.). Males were fed a standard Ssniff R/M-H diet (Ssniff Spezialdiäten GmbH, Soest, Germany). 16 h before the application of palm^11-PrRP31, the mice were fasted with free access to water. Application of saline and palm^11-PrRP31 after dissolution in saline was performed by SC at 5 mg/kg (volume 0.15 ml/mouse) or IN using a fine-tip pipette at 0.01 and 0.1 mg/kg (5 μl/mouse). Twenty minutes after peptide injection, mice were given pre-weighed food. The food was then weighed every 30 minutes for 7 hours. The experiment was performed at least twice for each dose of palm^11-PrRP31 and one group of mice consisted of at least 6 mice. The results are expressed as a percentage of food intake compared to the saline-injected control group.
as §2, with “saline (control)” for “saline”

GPR10 = conditions: previous studies (EP 3094643); cited from earlier work
[4] = test system: mouse and rat models of high-fat diet-induced obesity; conditions: chronic peripheral administration; cited from earlier work
blood glucose [5] = assay: blood glucose after repeated administration to obese WKY rats on high-fat diet; format: in vivo, rat (Wistar Kyoto; conditions: obese WKY rats on HFD, IN 0.3 mg/kg repeated, same extent as IP 5 mg/kg
Experimental: as §1

rats = conditions: intracerebroventricular (ICV); cited from earlier work
[6] = IN 0.3 mg/kg once daily, listed as Palm^11-PrRP31

Compound: CCCCCCCCCCC[C@@H](C[C@@H]1OC(=O)[C@H]1CCCCCC)OC(=O)[C@H](CC(C)C)NC=O [Orlistat]
- side effects [1]: diarrhea

Compound: CC(C)CC(N(C)C)C1(c2ccc(Cl)cc2)CCC1 (stereo not drawn) [Sibutramine]
- side effects [1]: increase the risk of heart disease

Compound: CCCCCCCCCCCCCCCC(=O)N[C@@H](CCC(=O)NCCCC[C@H](NC(=O)[C@@H](NC(=O)[C@H](CCC(=O)O)NC(=O)[C@H](CCSC)NC(=O)[C@H](CO)NC(=O)[C@H](Cc1c[nH]cn1)NC(=O)[C@H](CCCNC(=N)N)NC(=O)[C@H](Cc1c[nH]cn1)NC(=O)[C@@H](NC(=O)[C@H](CCCNC(=N)N)NC(=O)[C@@H](N)CO)[C@@H](C)O)[C@@H](C)CC)C(=O)N[C@H](C(=O)N1CCC[C@H]1C(=O)N[C@@H](CC(=O)O)C(=O)N[C@H](C(=O)N[C@@H](CC(N)=O)C(=O)N1CCC[C@H]1C(=O)N[C@@H](C)C(=O)N[C@@H](Cc1c[nH]c2ccccc12)C(=O)N[C@@H](Cc1ccc(O)cc1)C(=O)N[C@@H](C)C(=O)N[C@@H](CO)C(=O)N[C@@H](CCCNC(=N)N)C(=O)NCC(=O)N[C@H](C(=O)N[C@@H](CCCNC(=N)N)C(=O)N1CCC[C@H]1C(=O)N[C@H](C(=O)NCC(=O)N[C@@H](CCCNC(=N)N)C(=O)N[C@@H](Cc1ccccc1)C(N)=O)C(C)C)[C@@H](C)CC)[C@@H](C)CC)[C@@H](C)O)C(=O)O [palm^11-PrRP31] (H-SRTHRHSMEIK([γGlu-Palmitoyl])TPDINPAWYASRGIRPVGRF-NH2)
- blood glucose (blood glucose [2]): decreased blood glucose
- significance P vs. saline, change in weight (obese WKY rats; FIG. 2, IN 0.3 mg/kg, IP 5 mg/kg, ANOVA, Dunnett's): < 0.001
- IN dose lower than IP dose for the same weight reduction (obese WKY rats; IN 0.3 mg/kg vs. IP dose, rats): 16 times lower
- weight change (obese WKY rats; IN 0.3 mg/kg once daily): reduced weight; also recorded: highly significant weight reduction
- weight change (obese WKY rats; [6]): reduced the weight of rats after chronic administration to the same extent
- weight change (obese WKY rats; IP 5 mg/kg once daily, 5 mg/kg): highly significant weight reduction
- weight change (obese WKY rats; IP 5 mg/kg once daily, listed as Palm^11-PrRP31, 5 mg/kg): reduced the weight of rats after chronic administration to the same extent
- glycated hemoglobin (HbAlc) ([3]; IN 0.3 mg/kg once daily): significant decrease in blood glycated hemoglobin
- glycated hemoglobin (HbAlc) [3, 6]: significantly reduced glycated hemoglobin
- glycated hemoglobin (HbAlc) ([3]; IP 5 mg/kg once daily): significantly reduced glycated hemoglobin
- significance P vs. saline, change in weight (obese C57BL/6 mice; FIG. 4, IN 0.3 mg/kg, SC 5 mg/kg twice daily, ANOVA, Dunnett's): < 0.001
- body weight change (obese C57BL/6 mice; IN 0.3 mg/kg (twice daily, 14 days)): reduced weight; also recorded: highly significant weight reduction
- body weight change (obese C57BL/6 mice; IN 0.3 mg/kg (twice daily, 14 days), listed as Palm^11-PrRP31): highly significant weight reduction
- body weight change (obese C57BL/6 mice; SC 5 mg/kg twice daily, 14 days): highly significant weight reduction
- significance P vs. saline, cumulative food intake (fasted C57BL/6 mice; FIG. 1, SC 5 mg/kg, IN 0.01 and 0.1 mg/kg, ANOVA, Dunnett's): < 0.001
- IN dose relative to SC dose for the same reduction in food intake, in words (fasted C57BL/6 mice; IN 0.01 and 0.1 mg/kg vs. SC 5 mg/kg): an order of magnitude lower dose
- IN dose lower than SC dose to achieve the same effect on food intake (fasted C57BL/6 mice; IN vs. SC, feeding test in mice): 1-2 orders of magnitude
- food intake (fasted C57BL/6 mice; IN 0.01 mg/kg, vs. saline / SC 5 mg/kg): same reduction in food intake; also recorded: significantly reduced food intake
- food intake (fasted C57BL/6 mice; IN 0.01 mg/kg, vs. saline / SC 5 mg/kg, listed as Palm^11-PrRP31): reduced food intake in fasted mice very significantly and over a long period of time, to the same extent
- food intake (fasted C57BL/6 mice; IN 0.1 mg/kg, vs. saline / SC 5 mg/kg): same reduction in food intake; also recorded: significantly reduced food intake
- food intake (fasted C57BL/6 mice; IN 0.1 mg/kg, vs. saline / SC 5 mg/kg, listed as Palm^11-PrRP31): reduced food intake in fasted mice very significantly and over a long period of time, to the same extent
- food intake (fasted C57BL/6 mice; SC 5 mg/kg, vs. saline, 5 mg/kg): highly significant (P<0.001) reduction in food intake; also recorded: significantly reduced food intake
- food intake (fasted C57BL/6 mice; SC 5 mg/kg, vs. saline, listed as Palm^11-PrRP31, 5 mg/kg): reduced food intake in fasted mice very significantly and over a long period of time
- potency among analogues of PrRP31 (GPR10): most potent analogue of the natural peptide PrRP31
- anti-obesity and anti-diabetic effects [4]: anti-obesity and anti-diabetic effects
- blood glucose (blood glucose [5]): decreased blood glucose

Compound: PrRP31: natural prolactin-releasing peptide form containing 31 amino acids (SRTHRHSMEIRTPDINPAWYASRGIRPVGRF; ends and bridges not checked; UniProt P81277 23-53, looked up)
- food intake (rats): significant short-term reduction in food intake
- weight (rats): weight loss
